As usually defined, the logP is a log measure of how a compound divides between an organic and an aqueous phase.

`N#Cc1cccnc1N1CCN(CCNC(=O)c2ccc(F)cc2)CC1` displayed a logP of 2.33.

`Cc1ccc(N2CCN(CCNC(=O)c3ccc(F)cc3)CC2)cc1` returned a logP of 2.95.

In turn, `O=C(NCCN1CCN(c2ccc(Cl)cn2)CC1)c1ccc(F)cc1` gave a logP of 3.36.

Turning to `COc1cccc(C(=O)NCCN2CCN(c3ccc(Cl)cc3)CC2)c1`, the logP stood at 3.31.

`COc1cccc(C(=O)NCCN2CCN(c3ccc(Cl)cn3)CC2)c1` yielded a logP of 3.24.

Molecule `N#Cc1ccc(N2CCN(CCNC(=O)c3ccc(F)cc3)CC2)cc1` returned a logP of 3.02.

`O=C(NCCN1CCN(c2ccc(Cl)cc2)CC1)c1ccc(F)cc1` yielded a logP of 3.7.

In the case of `COc1cccc(C(=O)NCCN2CCN(c3ccc(C)cc3)CC2)c1`, the log partition coefficient (logP) amounted to 2.83.

Regarding `COc1cccc(C(=O)NCCN2CCN(c3ncccc3C#N)CC2)c1`, the logP turned out to be 2.47.
